Assay results published in patent US6096874A (Board of Regents, the University of Texas System, priority 1995, dated 2000).
“Also recorded” adds a separate entry of the source.

Key:
[1] = test system: MCF-7 human breast cancer cells; assay: MCF-7 human breast cancer xenograft growth in nude mice; type: in vivo, mouse; details: 50 μg daily s.c.
From the text: The cultures were free of mycoplasma and pathogenic murine viruses (assayed by Microbiological Associates, Bethesda, Md.). Female athymic NCr-nu/nu mice were obtained from the NCI-Frederick Cancer Research Facility (Frederick, Md.). The mice were maintained in specific-pathogen-free conditions in a facility approved by the American Association for Accreditation of Laboratory Animal Care. […] A 60-day release pellet containing […] 17-β estradiol (Innovative Research of America, Toledo, Ohio) was implanted s.c. in each animal. After 20 days the 17β estradiol […] removed from one group, and these mice were not treated further.

breast cancer [2] = assay: Response of PET-imaged patients to tamoxifen treatment; type: in vivo, human
breast cancer [3] = details: unselected patients with breast cancer; cited from earlier work
[4] = Acute/immediate toxicity following i.v. injection in BALB/c mice; details: mouse, in vivo, iv
Description: Acute toxicity studies were performed in BALB/c female mice with doses tested at 20, 50 and 200 mg/kg (i.v., n=5 mice per dose).

Compound | ER(+) MCF-7 tumor growth (in words) [1] | Response of TX treat. (breast cancer [2]; patient 1) | Response of TX treat. (breast cancer [2]; patient 2) | Response of TX treat. (breast cancer [2]; patient 3) | Response of TX treat. (breast cancer [2]; patient 4) | Response of TX treat. (breast cancer [2]; patient 5) | Response of TX treat. (breast cancer [2]; patient 7) | Response of TX treat. (breast cancer [2]; patient 9) | Response of TX treat. (breast cancer [2]; patient 10) | Response to tamoxifen therapy (in words) (breast cancer [2]; three patients with tumor uptake) | Positive therapy results (breast cancer [3]) | MTD [4]
CC/C(=C(\c1ccccc1)c1ccc(OCCN(C)C)cc1)c1ccccc1 [Compound I, Tamoxifen] | reduced ER(+) breast tumor growth; also recorded: growth of the MCF-7 tumors was greatly reduced | poor | poor | good | poor | good | poor | poor | good | positive response to tamoxifen therapy | 30% | 
CCN(CC)CCOc1ccc(C(=C(CCCI)c2ccccc2)c2ccccc2)cc1 [iodotamoxifen] | reduced ER(+) breast tumor growth; also recorded: growth of the MCF-7 tumors was greatly reduced |  |  |  |  |  |  |  |  |  |  | 50 mg/kg
